Reference: PMC10813298, “Evidence of Guanidines Potential against Leishmania (Viannia) braziliensis: Exploring In Vitro Effectiveness, Toxicities and of Innate Immunity Response Effects” (Biomolecules, 2023)

Experiments:
IL-12 = experiment: Cytokine production in supernatant of infected macrophages (ELISA), IL-12; type: cell-based, murine; details: supernatant of RAW 264.7 macrophages infected with L. (V.) braziliensis
Description: (§1) To assess the production of cytokines TNF-α and IL-12 (associated with Th1 response), as well as IL-10 and IL-6 (associated with Th2 response), in the supernatants of the macrophage infection assay, the sandwich enzyme-linked immunosorbent assay (ELISA) method was employed, following the manufacturer’s instructions (eBioscience^TM, San Diego, CA, USA). Initially, capture antibodies specific to TNF-α, IL-6, IL-10, and IL-12 were sensitized in ELISA plates (NUNC-ImmunoTM, Sigma-Aldrich, St. Louis, MO, USA). The plates were incubated at 4 °C for 18 h. After the incubation period, all wells were washed with a solution containing 0.05% PBS and Tween 20 (Sigma-Aldrich, St. Louis, MO, USA). A blocking solution containing 10% FBS in PBS was added to the wells and incubated for 1 h. Subsequently, the wells were washed again. The supernatant obtained from the macrophage infection assay was added to the respective wells. Known concentrations of recombinant cytokines (TNF-α, IL-10, IL-6, and IL-12) were also added to the plate in parallel, covering a range from high to low concentrations. The plates were maintained at 4 °C for another 18 h. […] The absorbance was measured in a plate reader at a wavelength of 450 nm. The concentration of cytokines (TNF-α, IL-10, IL-6, and IL-12) in the supernatants was determined by interpolation from the standard curve.

IL-10 = experiment: Cytokine production in supernatant of infected macrophages (ELISA), IL-10; type: cell-based, murine; details: supernatant of RAW 264.7 macrophages infected with L. (V.) braziliensis
Description: as §1

aorta = experiment: Vasodilator effect on aortic rings (KCl contraction); details: Cavia porcellus; guinea pig aortic rings
Method: (§2) Guinea pigs of either sex weighing between 250 or 380 g were utilized in this study. The animals were housed in a controlled environment in an air-conditioned room, maintaining a temperature of 22 to 24 °C and a relative humidity of 50% to 60%. A 12 h light–dark cycle was maintained.
(§3) On the day of the experiments, the animals were euthanized via cervical dislocation. The heart, aorta, pulmonary artery, and ileum were surgically removed and immersed in Krebs–Henseleit solution, with the following composition: NaCl 144.9 mM, KCl 4.73 mM, CaCl2 3.2 mM, MgSO4 1.18 mM, NaHCO3 24.9 mM, KH2PO4 1.18 mM, and glucose 10 mM, with the pH maintained at 7.2–7.4. This solution was continuously aerated with a mixture of 95% O2 and 5% CO2.
Papillary muscles were isolated from the right ventricle of the heart and meticulously cleared of Purkinje fibers to prevent spontaneous activity. To ensure adequate oxygen supply, only muscles with a diameter less than 0.87 mm were used. The right atrium was also dissected for assessment of chronotropic activity. […]
(§4) Following a 30 min control period, different concentrations of test compounds were cumulatively added to the bath solution every 45 min until a stable effect was achieved. The responses were recorded using a chart recorder (BD 112 Dual Channel, Kipp &Zonen, PO Box 507, 2624 BC, Delft, Holland) for subsequent evaluation. […]

pulmonary artery = experiment: Vasodilator effect on pulmonary artery rings (KCl contraction); details: guinea pig pulmonary artery rings
Method: as §2, §3
Papillary muscles were isolated from the right ventricle of the heart and meticulously cleared of Purkinje fibers to prevent spontaneous activity. To ensure adequate oxygen supply, only muscles with a diameter less than 0.87 mm were used. The right atrium was also dissected for assessment of chronotropic activity. Both the aorta and pulmonary artery were cleaned and cut into 5 mm rings, while the ileum was sectioned into pieces measuring 1 to 2 cm.
One end of the dissected tissues was securely tied with silver wire for attachment to a tissue holder, while the other end was connected to a force transducer (Transbridge™, 4-Channel Transducer Amplifier, World Precision Instruments, Sarasota, FL, USA). For contractile measurements, the terminal ileum was stimulated with 60 mM KCl, and the pulmonary artery and aorta rings were exposed to a 90 mM KCl solution. […]
as §4

[1] = system: Leishmania (Leishmania) amazonensis; parameters: method as in PMID 36551331; details: BALB/c-L. (L.) amazonensis, 0.13 mg/kg/day; cited from earlier work
LmCPB2.8ΔCTE = system: LmCPB2.8ΔCTE; parameters: method as in PMID 36551331; details: previous findings; cited from earlier work

| Structure (SMILES) | IL-12 level (IL-12) | IL-10 level (IL-10) | EC50 (aorta) [µM] | EC50 (pulmonary artery; Cavia porcellus) [µM] | arteria pulmonalis ring contraction force (pulmonary artery) | reduction in the parasite load [1] [%] | inhibition of the enzyme LmCPB2.8ΔCTE (LmCPB2.8ΔCTE) [%] |
| --- | --- | --- | --- | --- | --- | --- | --- |
| O=C(/N=C(/NCc1ccccc1)Nc1ccc([N+](=O)[O-])cc1)c1ccccc1 [LQOF-G1, (Z)-N-benzoyl-N-benzyl-N-(4-nitrophenyl)guanidine] | increased | decreased |  |  |  |  |  |
| O=C(/N=C(/NCc1ccccc1)Nc1ccc(Br)cc1)c1ccccc1 [LQOF-G2, (Z)-N-benzoyl-N-benzyl-N-(4-bromophenyl)guanidine] |  | decreased | 16 | 48 | decrease | 46 |  |
| CC(C)(C)c1ccc(N/C(=N\C(=O)c2ccccc2)NCc2ccccc2)cc1 [LQOF-G6, (Z)-N-benzoyl-N-benzyl-N-(4-tert-butylphenyl)guanidine] |  |  |  |  |  |  | 73 |
